Molecules are shown by their SMILES. Like-named read-outs stand apart in the source and are kept apart here. Some results are limits rather than exact numbers.

Assay [1] deals with T1, HIS-TGFβR1 T204D (Homo sapiens, UniProt P36897, T204D).
T1 sequence (P36897 34-503 T204D): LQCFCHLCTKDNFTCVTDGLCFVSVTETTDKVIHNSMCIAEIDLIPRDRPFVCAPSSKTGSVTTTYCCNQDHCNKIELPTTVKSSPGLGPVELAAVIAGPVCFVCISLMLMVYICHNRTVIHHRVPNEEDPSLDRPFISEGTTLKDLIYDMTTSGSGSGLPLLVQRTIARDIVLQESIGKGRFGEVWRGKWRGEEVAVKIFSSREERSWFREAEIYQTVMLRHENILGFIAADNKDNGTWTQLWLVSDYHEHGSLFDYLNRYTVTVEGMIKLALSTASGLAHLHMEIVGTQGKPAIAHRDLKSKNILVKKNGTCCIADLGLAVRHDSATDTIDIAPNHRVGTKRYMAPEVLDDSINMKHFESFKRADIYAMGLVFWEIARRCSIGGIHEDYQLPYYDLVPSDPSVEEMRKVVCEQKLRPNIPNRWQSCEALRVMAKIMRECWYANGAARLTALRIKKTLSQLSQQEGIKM
As to the kind of experiment: HTRF probe-displacement assay, HIS-TGFβR1 T204D. Format: binding. Background: In TR-FRET formats the signal depends on donor and acceptor labels being close together.

The target of assay [2] is HIS-TGFβR2 WT (Homo sapiens, UniProt P37173). Briefly: HTRF probe-displacement assay, HIS-TGFβR2 WT. Format: binding.
Chain of HIS-TGFβR2 WT (P37173 23-567): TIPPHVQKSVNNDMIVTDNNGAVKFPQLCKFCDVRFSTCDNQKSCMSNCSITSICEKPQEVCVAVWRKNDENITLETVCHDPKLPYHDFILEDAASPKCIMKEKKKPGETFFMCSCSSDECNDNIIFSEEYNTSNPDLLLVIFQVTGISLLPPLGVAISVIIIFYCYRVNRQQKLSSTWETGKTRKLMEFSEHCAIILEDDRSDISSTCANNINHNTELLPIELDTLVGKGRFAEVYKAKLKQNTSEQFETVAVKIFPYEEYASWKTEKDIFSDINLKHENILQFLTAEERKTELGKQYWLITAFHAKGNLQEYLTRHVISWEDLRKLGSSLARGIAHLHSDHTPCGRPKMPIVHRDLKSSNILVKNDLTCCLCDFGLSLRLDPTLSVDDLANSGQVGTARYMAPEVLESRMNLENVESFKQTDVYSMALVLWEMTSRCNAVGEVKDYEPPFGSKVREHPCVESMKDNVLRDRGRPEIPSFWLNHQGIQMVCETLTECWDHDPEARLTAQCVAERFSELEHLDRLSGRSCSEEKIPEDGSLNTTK

A word on the IC50: it is the point on the concentration scale where inhibition reaches its midpoint. For the compound `CC(=O)Nc1cc(-c2[nH]c3cccnc3c2-c2ccc(Cl)c(C)n2)ccn1` [Example 33, N-{4-[3-(5-Chloro-6-methylpyridin-2-yl)-1H-pyrrolo[3,2-b]pyridin-2-yl]pyridin-2-yl}acetamide], the IC50 in assay [1] (read-out: TGFβR1 (μM) IC50) was 0.005 µM; in assay [2] it was above 15 µM.
The matching figures for `COCC(C)Oc1cnc2c(-c3ccc(OC)cn3)c(-c3ccnc(NC(C)=O)c3)[nH]c2c1` (centres unmarked) [Example 97, N-(4-(6-((1-Methoxypropan-2-yl)oxy)-3-(5-methoxypyridin-2-yl)-1H-pyrrolo[3,2-b]pyridin-2-yl)pyridin-2-yl)acetamide]: 0.001 µM and above 15 µM.
The matching figures for `CCc1ccnc(-c2c(-c3ccnc(NC(C)=O)c3)[nH]c3cccnc23)c1` [Example 29, N-{4-[3-(4-Ethylpyridin-2-yl)-1H-pyrrolo[3,2-b]pyridin-2-yl]pyridin-2-yl}acetamide]: 0.017 µM and above 15 µM.
For `COc1ccc(-c2c(-c3ccnc(NC(C)=O)c3)[nH]c3c(CO)ccnc23)cn1` [Example 274, N-(4-(7-(Hydroxymethyl)-3-(6-methoxypyridin-3-yl)-1H-pyrrolo[3,2-b]pyridin-2-yl)pyridin-2-yl)acetamide], the values for the IC50 in assay [1] (read-out: TGFβR1 (μM) IC50) and in assay [2] were 0.001 µM and 0.114 µM, respectively.
As to `C=Cc1ccnc2c(-c3cccc(C(F)F)n3)c(-c3ccnc(NC(C)=O)c3)[nH]c12` [Example 127, N-(4-{3-[6-(Difluoromethyl)pyridin-2-yl]-7-ethenyl-1H-pyrrolo[3,2-b]pyridin-2-yl}pyridin-2-yl)acetamide], the figures for the IC50 in assay [1] (read-out: TGFβR1 (μM) IC50) and in assay [2] were 0.001 µM and 6.65 µM, respectively.
As for `COc1ccc(-c2c(-c3ccnc(NC(C)=O)c3)[nH]c3c(Cl)ccnc23)cn1` [Example 271, N-(4-(7-Chloro-3-(6-methoxypyridin-3-yl)-1H-pyrrolo[3,2-b]pyridin-2-yl)pyridin-2-yl)acetamide], the values for the IC50 in assay [1] (read-out: TGFβR1 (μM) IC50) and in assay [2] were 0.002 µM and 0.352 µM, respectively.
Regarding `CC(=O)Nc1cc(-c2[nH]c3cc(Cl)cnc3c2-c2cc(C)c(F)cn2)ccn1` [Example 44, N-{4-[6-Chloro-3-(5-fluoro-4-methylpyridin-2-yl)-1H-pyrrolo[3,2-b]pyridin-2-yl]pyridin-2-yl}acetamide], the IC50 was 0.027 µM in assay [1] (read-out: TGFβR1 (μM) IC50) and 0.34 µM in assay [2].
On to `COc1ccc(-c2c(-c3ccnc(NC(C)=O)c3)[nH]c3cc(C#N)cnc23)nc1` [Example 92, N-{4-[6-Cyano-3-(5-methoxypyridin-2-yl)-1H-pyrrolo[3,2-b]pyridin-2-yl]pyridin-2-yl}acetamide], for which the IC50 in assay [1] (read-out: TGFβR1 (μM) IC50) is 0.002 µM; in assay [2], above 15 µM.
Regarding `COc1ccc(-c2c(-c3ccnc(NC(=O)CN4CCN(CCO)CC4)c3)[nH]c3cc(Cl)cnc23)cn1` [Example 235, N-(4-(6-Chloro-3-(6-methoxypyridin-3-yl)-1H-pyrrolo[3,2-b]pyridin-2-yl)pyridin-2-yl)-2-(4-(2-hydroxyethyl)piperazin-1-yl)acetamide], the IC50 is 0.001 µM in assay [1] (read-out: TGFβR1 (μM) IC50) and 0.176 µM in assay [2].
The matching figures for `COc1ccc(-c2c(-c3ccnc(NC(C)=O)c3)[nH]c3cccnc23)nc1Cl` [Example 192, N-(4-(3-(6-Chloro-5-methoxypyridin-2-yl)-1H-pyrrolo[3,2-b]pyridin-2-yl)pyridin-2-yl)acetamide]: 0.11 µM and above 15 µM.
For `CC(=O)Nc1cc(-c2[nH]c3cc(Cl)cnc3c2-c2cccc(C(F)F)n2)ccn1` [Example 171, N-(4-(6-Chloro-3-(6-(difluoromethyl)pyridin-2-yl)-1H-pyrrolo[3,2-b]pyridin-2-yl)pyridin-2-yl)acetamide], the IC50 in assay [1] (read-out: TGFβR1 (μM) IC50) came to 0.001 µM; in assay [2], 10.8 µM.
As to `CC(=O)Nc1cc(-c2[nH]c3cc(Cl)cnc3c2-c2nc(CO)cs2)ccn1` [Example 178, N-(4-(6-Chloro-3-(4-(hydroxymethyl)thiazol-2-yl)-1H-pyrrolo[3,2-b]pyridin-2-yl)pyridin-2-yl)acetamide], the IC50 in assay [1] (read-out: TGFβR1 (μM) IC50) was 0.0035 µM; in assay [2] it was 0.176 µM.
Regarding `CCNc1cc(-c2[nH]c3cc(Cl)cnc3c2-c2ccc(OC)cn2)ccn1` [Example 242, 4-(6-Chloro-3-(5-methoxypyridin-2-yl)-1H-pyrrolo[3,2-b]pyridin-2-yl)-N-ethylpyridin-2-amine], the IC50 in assay [1] (read-out: TGFβR1 (μM) IC50) is 0.033 µM; in assay [2] it was at least 15 µM.
For the compound `CC(=O)Nc1cc(-c2[nH]c3cc(C)cnc3c2-c2nc(C)cs2)ccn1` [Example 223, N-(4-(6-Methyl-3-(4-methylthiazol-2-yl)-1H-pyrrolo[3,2-b]pyridin-2-yl)pyridin-2-yl)acetamide], the IC50 in assay [1] (read-out: TGFβR1 (μM) IC50) was 0.0008 µM; in assay [2], 0.043 µM.
As for `COc1ccc(-c2c(-c3ccnc(NC(C)=O)c3)[nH]c3ccc(OC)nc23)cn1` [Example 76, N-(4-(5-Methoxy-3-(6-methoxypyridin-3-yl)-1H-pyrrolo[3,2-b]pyridin-2-yl)pyridin-2-yl)acetamide], the IC50 in assay [1] (read-out: TGFβR1 (μM) IC50) was determined as 0.016 µM; in assay [2] it was 0.93 µM.
For `COc1ccc(-c2c(-c3ccnc(NC(C)=O)c3)[nH]c3cc(N(C)CCO)cnc23)nc1` [Example 165, N-(4-(6-((2-Hydroxyethyl)(methyl)amino)-3-(5-methoxypyridin-2-yl)-1H-pyrrolo[3,2-b]pyridin-2-yl)pyridin-2-yl)acetamide], the IC50 in assay [1] (read-out: TGFβR1 (μM) IC50) is 0.0353 µM; in assay [2], above 15 µM.
The matching figures for `CC(=O)Nc1cc(-c2[nH]c3cc(Cl)cnc3c2-c2ccc(OC(C)C)cn2)ccn1` [Example 254, N-(4-(6-Chloro-3-(5-isopropoxypyridin-2-yl)-1H-pyrrolo[3,2-b]pyridin-2-yl)pyridin-2-yl)acetamide]: 0.065 µM and above 15 µM.
For `CC(=O)Nc1cc(-c2[nH]c3cc(Cl)cnc3c2-c2cccc(C)n2)ccn1` [Example 66, N-{4-[6-Chloro-3-(6-methylpyridin-2-yl)-1H-pyrrolo[3,2-b]pyridin-2-yl]pyridin-2-yl}acetamide], the IC50 was determined as 0.002 µM in assay [1] and 3.72 µM in assay [2].
Regarding `COc1cnc2c(-c3ncc(C)s3)c(-c3ccnc(NC(C)=O)c3)[nH]c2c1` [Example 209, N-(4-(6-Methoxy-3-(5-methylthiazol-2-yl)-1H-pyrrolo[3,2-b]pyridin-2-yl)pyridin-2-yl)acetamide], the IC50 was found to be 0.0009 µM in assay [1] (read-out: TGFβR1 (μM) IC50) and 0.218 µM in assay [2].
The matching figures for `CC(=O)Nc1cc(-c2[nH]c3c(CO)ccnc3c2-c2ccc(Cl)nc2)ccn1` [Example 278, N-(4-(3-(6-Chloropyridin-3-yl)-7-(hydroxymethyl)-1H-pyrrolo[3,2-b]pyridin-2-yl)pyridin-2-yl)acetamide]: 0.011 µM and 0.709 µM.
In the case of `COc1ccc(-c2c(-c3ccnc(NC(C)=O)c3)[nH]c3c(C(=O)NC(CO)CO)ccnc23)cn1` [Example 59, N-(1,3-Dihydroxypropan-2-yl)-2-(2-acetamidopyridin-4-yl)-3-(6-methoxypyridin-3-yl)-1H-pyrrolo[3,2-b]pyridine-7-carboxamide], the half-maximal inhibitory concentration (IC50) was found to be 0.021 µM in assay [1] (read-out: TGFβR1 (μM) IC50) and 6.37 µM in assay [2].
For `CC(=O)Nc1cc(-c2[nH]c3cccnc3c2-c2cn[nH]c2)ccn1` [Example 189, N-(4-(3-(1H-Pyrazol-4-yl)-1H-pyrrolo[3,2-b]pyridin-2-yl)pyridin-2-yl)acetamide], the IC50 in assay [1] (read-out: TGFβR1 (μM) IC50) was found to be 0.249 µM; in assay [2], 0.089 µM.
The matching figures for `CC(=O)Nc1cc(-c2[nH]c3c(N4CCCC4)ccnc3c2-c2cccc(C(F)F)n2)ccn1` [Example 156, N-(4-{3-[6-(Difluoromethyl)pyridin-2-yl]-7-(pyrrolidin-1-yl)-1H-pyrrolo[3,2-b]pyridin-2-yl}pyridin-2-yl)acetamide]: 0.188 µM and above 15 µM.
For `COc1ccnc2c(-c3cccc(C)n3)c(-c3ccnc(NC(C)=O)c3)[nH]c12` [Example 257, N-(4-(7-Methoxy-3-(6-methylpyridin-2-yl)-1H-pyrrolo[3,2-b]pyridin-2-yl)pyridin-2-yl)acetamide], the IC50 was found to be 0.003 µM in assay [1] (read-out: TGFβR1 (μM) IC50) and 6.21 µM in assay [2].
The matching figures for `COC(=O)c1cc(Cl)nc2c(-c3ccc(Cl)cn3)c(-c3ccnc(NC(C)=O)c3)[nH]c12` [Example 70, Methyl 5-chloro-3-(5-chloropyridin-2-yl)-2-(2-acetamidopyridin-4-yl)-1H-pyrrolo[3,2-b]pyridine-7-carboxylate]: 7.73 µM and above 15 µM.
The matching figures for `COc1ccc(-c2c(-c3ccnc(NC(=O)CN4CCN(CCO)CC4)c3)[nH]c3cc(OC)cnc23)nc1` [Example 120, 2-[4-(2-Hydroxyethyl)piperazin-1-yl]-N-{4-[6-methoxy-3-(5-methoxypyridin-2-yl)-1H-pyrrolo[3,2-b]pyridin-2-yl]pyridin-2-yl}acetamide]: 0.001 µM and above 15 µM.
In the case of `CC(=O)Nc1cc(-c2[nH]c3cc(F)cnc3c2-c2nc(C#N)cs2)ccn1` [Example 226, N-(4-(3-(4-Cyanothiazol-2-yl)-6-fluoro-1H-pyrrolo[3,2-b]pyridin-2-yl)pyridin-2-yl)acetamide], the IC50 in assay [1] (read-out: TGFβR1 (μM) IC50) was 0.0041 µM; in assay [2], 1.55 µM.
The matching figures for `COc1cnc2c(-c3csc(C)n3)c(-c3ccnc(NC(C)=O)c3)[nH]c2c1` [Example 210, N-(4-(6-Methoxy-3-(2-methylthiazol-4-yl)-1H-pyrrolo[3,2-b]pyridin-2-yl)pyridin-2-yl)acetamide]: 0.0025 µM and 0.815 µM.

The values are drawn from patent publication US9708316B2 (BRISTOL-MYERS SQUIBB COMPANY, priority 2014, dated 2017).
